Results taken from patent EP3964204A1, “LSD1 INHIBITORS FOR USE IN THE TREATMENT AND PREVENTION OF FIBROSIS OF TISSUES” (Université d'Aix-Marseille, priority 2020, dated 2022).

Tests used:
[1] = molecular target: T1, LSD1 (Mus musculus, UniProt Q6ZQ88); experiment: Cardiac LSD1 activity in explanted hearts at end of treatment (Epigentec kit); format: in vivo, mice; settings: 1.5 mg / Kg intragastric gavage from 10 days after experimental infarction for three weeks, Figure 1
T1 construct: from tissue; host or cells: explanted hearts of C57BL/6 mice
Experimental: The LSD1 inhibitor (1.5 mg / Kg) was administered by intragastric gavage 10 days after experimental infarction and for three weeks. Losartan (5mg/kg) was also administered by oral gavage one week after experimental infarction and for three weeks,
The severity of the infarction was assessed by echocardiography 10 days after surgery. LSD1 activity was measured at the end of treatment (Epigentec kit) in explanted hearts. […] The ventricular wall has thickened when compared to the group treated with losartan Student -t-test ** p≤ 0.001 (Figure 2 B). Left ventricular function has improved. • 2- Ischemia -reperfusion model : transient ligation of descending anterior left coronary (30 min); followed by reperfusion

[2] = system: C57BL/6 adult mice; experiment: Ischemia-reperfusion model (transient ligation of descending anterior left coronary 30 min, then reperfusion); format: in vivo
Experimental: Both groups were subjected to experimental infarction. A control group received no treatment. Two myocardial infraction models were used, respectively a permanent infarction model and an ischemia -reperfusion model. The LSD1 inhibitor (1.5 mg / Kg) was administered by intragastric gavage 10 days after experimental infarction and for three weeks. Losartan (5mg/kg) was also administered by oral gavage one week after experimental infarction and for three weeks, • 1: experimental infarctus : • 2.: 10 days later: control echo : pretreatment echo: • 3: posttreatment echo one month later The severity of the infarction was assessed by echocardiography 10 days after surgery. LSD1 activity was measured at the end of treatment ([…] kit) in explanted hearts. […] The ventricular wall has thickened when compared to the group treated with losartan Student -t-test ** p≤ 0.001 (Figure 2 B). Left ventricular function has improved. • 2- Ischemia -reperfusion model : transient ligation of descending anterior left coronary (30 min); followed by reperfusion The results were similar in the ischemia / reperfusion model. […] Student -t-test **p≤ 0.001 The shortening fraction (SF) is an index of contractile activity : the contraction of the walls of ventricle is responsible of the shortening of the distance between each wall. This is calculated by dividing the distance between the walls at diastole minus the distance between the walls at systole by the distance between the walls at diastole (in %) Shortening fraction x Volume of chamber = ejection fraction (% of the chamber volume emptied at each contraction)

[3] = system: C57BL/6 adult mice; experiment: Permanent infarction model (permanent ligation of descending anterior left coronary, no reperfusion); format: in vivo
Experimental: Both groups were subjected to experimental infarction. A control group received no treatment. Two myocardial infraction models were used, respectively a permanent infarction model and an ischemia -reperfusion model. The LSD1 inhibitor (1.5 mg / Kg) was administered by intragastric gavage 10 days after experimental infarction and for three weeks. Losartan (5mg/kg) was also administered by oral gavage one week after experimental infarction and for three weeks, • 1: experimental infarctus : • 2.: 10 days later: control echo : pretreatment echo: • 3: posttreatment echo one month later The severity of the infarction was assessed by echocardiography 10 days after surgery. LSD1 activity was measured at the end of treatment ([…] kit) in explanted hearts. […] The ventricular wall has thickened when compared to the group treated with losartan Student -t-test ** p≤ 0.001 (Figure 2 B). Left ventricular function has improved. • 2- Ischemia -reperfusion model : transient ligation of descending anterior left coronary (30 min); followed by reperfusion

SMILES: Cl.Cl.c1ccc([C@@H]2C[C@H]2NC2CCNCC2)cc1 [GSK-LSD1, N-[(1R,2S)-2-phenylcyclopropyl]piperidin-4-amine dihydrochloride]
- cardiac LSD1 activity [1]: significantly reduced
- myocardial fibrosis area (LV) ([2]; ischemia / reperfusion, 1.5 mg / Kg gavage, three weeks, compared with the non treated group, p≤ 0.001, Figure 3 A): prevented fibrosis
- Left ventricular function ([2]; ischemia / reperfusion, M-mode echocardiography, compared to non-treated group and pretreatment, p≤ 0.001, Figure 3 B): fully restored left ventricular function
- shortening fraction (SF) ([2]; post administration, normal SF in healthy mice 60%, post infarct 20%): 60%
- Left ventricular function ([3]; 1.5 mg / Kg gavage, three weeks): has improved
- left ventricular wall thickness ([3]; 1.5 mg / Kg gavage, three weeks, compared to the group treated with losartan, p≤ 0.001, Figure 2 B): has thickened
- myocardial fibrosis area (left ventricle : LV) ([3]; 1.5 mg / Kg intragastric gavage from 10 days after infarction for three weeks, compared to Losartan (5mg/kg), Figure 2 A): significantly reduced fibrosis
